Measured values published in PubChem BioAssay AID330 (DTP/NCI, 2004).
Toxic doses and inconclusive results are not listed. Peptide text beside a SMILES is read from it. * marks the point of attachment. Cbz = O=C(OCc1ccccc1)*

System: P388 leukemia ip, CD2F1 mice, survival T/C
Test: NCI In Vivo Anticancer Drug Screen. Data for tumor model P388 Leukemia (intraperitoneal) in CD2F1 (CDF1) mice
Conditions: endpoint: median survival time, higher = longer survival
Procedure, shortened: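 Mice carrying the transplanted tumor received test compound or vehicle. Survival was recorded in each group, and the value is the treated-group measurement divided by that of the vehicle-treated control group.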

[1] = dose: 50.0 mg/kg/injection, schedule: Q01DX005 (ip), vehicle: saline with Tween-80
[2] = dose: 100.0 mg/kg/injection, schedule: Q01DX005 (ip), vehicle: saline with Tween-80
[3] = dose: 200.0 mg/kg/injection, schedule: Q01DX005 (ip), vehicle: saline with Tween-80
[4] = dose: 50.0 mg/kg/injection, schedule: Q01DX009 (ip), vehicle: Klucel (hydroxypropylcellulose) (HPC)
[5] = dose: 100.0 mg/kg/injection, schedule: Q01DX009 (ip), vehicle: Klucel (hydroxypropylcellulose) (HPC)
[6] = dose: 200.0 mg/kg/injection, schedule: Q01DX009 (ip), vehicle: Klucel (hydroxypropylcellulose) (HPC)
[7] = dose: 60.0 mg/kg/injection, schedule: Q01DX005 (ip), vehicle: saline with Tween-80
[8] = dose: 120.0 mg/kg/injection, schedule: Q01DX005 (ip), vehicle: saline with Tween-80
[9] = dose: 240.0 mg/kg/injection, schedule: Q01DX005 (ip), vehicle: saline with Tween-80
[10] = dose: 50.0 mg/kg/injection, schedule: Q01DX009 (ip), vehicle: saline with Tween-80
[11] = dose: 100.0 mg/kg/injection, schedule: Q01DX009 (ip), vehicle: saline with Tween-80

O=C(/N=C1\N=Nc2nc(CC(=O)c3cccc4ccccc34)c(O)n21)Nc1ccc(Cl)cc1
T/C [1]: 96 % of control
T/C [2]: 103 % of control
T/C [3]: 104 % of control

COc1cccc(NC(=S)NCc2cccnc2)c1
T/C [4]: 101 % of control
T/C [5]: 91 % of control
T/C [6]: 111 % of control

CC1(C)CCCC2(C)C1CCC13OC1(C=O)C(C=O)=CCC23 (configuration not stated)
T/C (dose: 1.25 mg/kg/injection, schedule: Q01DX005 (ip), vehicle: saline + alcohol): 99 % of control
T/C (dose: 2.5 mg/kg/injection, schedule: Q01DX005 (ip), vehicle: saline + alcohol): 98 % of control
T/C (dose: 5.0 mg/kg/injection, schedule: Q01DX005 (ip), vehicle: saline + alcohol): 99 % of control
T/C (dose: 10.0 mg/kg/injection, schedule: Q01DX005 (ip), vehicle: saline + alcohol): 99 % of control
T/C (dose: 20.0 mg/kg/injection, schedule: Q01DX005 (ip), vehicle: saline + alcohol): 104 % of control

CCc1c(N2CCOCC2)c(C#N)c2nc3ccccc3n2c1N1CCOCC1
T/C [7]: 99 % of control
T/C [8]: 95 % of control
T/C [9]: 98 % of control

Cc1cc2c(c(C#N)c1C)NC=NC2C (configuration not stated)
T/C [10]: 94 % of control
T/C [11]: 105 % of control

CC(C)NCCCNC(=O)C1COc2ccccc2O1 (configuration not stated)
T/C (dose: 50.0 mg/kg/injection, schedule: Q01DX005 (ip), vehicle: saline): 94 % of control
T/C (dose: 100.0 mg/kg/injection, schedule: Q01DX005 (ip), vehicle: saline): 88 % of control
T/C (dose: 200.0 mg/kg/injection, schedule: Q01DX005 (ip), vehicle: saline): 90 % of control

COc1ccccc1N1C(=S)N(c2cccc(Cl)c2Cl)C(=O)C(N=Nc2ccc(Br)cc2)C1O (configuration not stated)
T/C (dose: 100.0 mg/kg/injection, schedule: Q01DX001 (ip), vehicle: Klucel (hydroxypropylcellulose) (HPC)): 100 % of control
T/C (dose: 200.0 mg/kg/injection, schedule: Q01DX001 (ip), vehicle: Klucel (hydroxypropylcellulose) (HPC)): 99 % of control
T/C (dose: 400.0 mg/kg/injection, schedule: Q01DX001 (ip), vehicle: Klucel (hydroxypropylcellulose) (HPC)): 96 % of control

CCOC1(C)OC2OC(COC(C)=O)C(OC(C)=O)C(OC(N)=O)C2O1 (configuration not stated)
T/C [1]: 97 % of control
T/C [2]: 92 % of control
T/C [3]: 92 % of control

Cc1cc2ccccc2c2nncn12
T/C [10]: 103 % of control
T/C [11]: 103 % of control

COP(=O)(O)OC.[U]
T/C (dose: 3.12 mg/kg/injection, schedule: Q01DX009 (ip), vehicle: saline with Tween-80): 118 % of control
T/C (dose: 6.25 mg/kg/injection, schedule: Q01DX009 (ip), vehicle: saline with Tween-80): 118 % of control

CCCCCCCCCCCCCCCCCC(=O)NC(Cc1ccc(N(CCCl)CCCl)cc1)C(=O)O (configuration not stated)
T/C (dose: 1.88 mg/kg/injection, schedule: Q01DX009 (ip), vehicle: saline): 159 % of control
T/C (dose: 3.75 mg/kg/injection, schedule: Q01DX009 (ip), vehicle: saline): 172 % of control
T/C (dose: 3.75 mg/kg/injection, schedule: Q03HX008 (ip), vehicle: saline): 155 % of control
T/C (dose: 7.5 mg/kg/injection, schedule: Q01DX009 (ip), vehicle: saline): 236 % of control
T/C (dose: 7.5 mg/kg/injection, schedule: Q03HX008 (ip), vehicle: saline): 190 % of control
T/C (dose: 15.0 mg/kg/injection, schedule: Q01DX009 (ip), vehicle: saline): 277 % of control
T/C (dose: 15.0 mg/kg/injection, schedule: Q03HX008 (ip), vehicle: saline): 225 % of control

CSc1nc2ccc(CN3C(=O)c4ccccc4C3=O)cc2s1
T/C [4]: 88 % of control
T/C [5]: 98 % of control
T/C [6]: 91 % of control

O=C(Nc1ccc(Cl)cc1)Nc1nccs1
T/C (dose: 12.5 mg/kg/injection, schedule: Q01DX009 (ip), vehicle: distilled water + Tween-80): 100 % of control
T/C (dose: 25.0 mg/kg/injection, schedule: Q01DX009 (ip), vehicle: distilled water + Tween-80): 109 % of control
T/C (dose: 50.0 mg/kg/injection, schedule: Q01DX009 (ip), vehicle: distilled water + Tween-80): 111 % of control
T/C (dose: 100.0 mg/kg/injection, schedule: Q01DX009 (ip), vehicle: distilled water + Tween-80): 118 % of control

COc1cccc(C(Nc2nncs2)Nc2nncs2)c1OC
T/C [7]: 87 % of control
T/C [8]: 91 % of control
T/C [9]: 100 % of control

CCOC(=O)/[C](=N\N=P(N(C)C)(N(C)C)N(C)C)[Sb]([CH3])[CH3]
T/C (dose: 12.5 mg/kg/injection, schedule: Q01DX001 (ip), vehicle: saline): 99 % of control
T/C (dose: 25.0 mg/kg/injection, schedule: Q01DX001 (ip), vehicle: saline): 102 % of control

C=C1C=CN(C(C)=O)C(OC(C)=O)C1SC(C)(C)C (configuration not stated)
T/C [7]: 97 % of control
T/C [8]: 95 % of control
T/C [9]: 97 % of control

COC(=O)C(C)CP(=O)(O)OC (configuration not stated)
T/C (dose: 50.0 mg/kg/injection, schedule: Q01DX005 (ip), vehicle: water): 97 % of control
T/C (dose: 100.0 mg/kg/injection, schedule: Q01DX005 (ip), vehicle: water): 98 % of control
T/C (dose: 200.0 mg/kg/injection, schedule: Q01DX005 (ip), vehicle: water): 114 % of control

CC(C(=O)O)N1CN(/N=C/c2ccc(Cl)cc2Cl)C(N)=NC1(O)CCl (configuration not stated)
T/C (dose: 60.0 mg/kg/injection, schedule: Q01DX005 (ip), vehicle: saline): 101 % of control
T/C (dose: 120.0 mg/kg/injection, schedule: Q01DX005 (ip), vehicle: saline): 101 % of control
T/C (dose: 240.0 mg/kg/injection, schedule: Q01DX005 (ip), vehicle: saline): 115 % of control

C=CCC(C)(C#N)C1C=CCC1 (configuration not stated)
T/C (dose: 100.0 mg/kg/injection, schedule: Q01DX009 (ip), vehicle: saline sonified): 100 % of control
T/C (dose: 200.0 mg/kg/injection, schedule: Q01DX009 (ip), vehicle: saline sonified): 100 % of control
T/C (dose: 400.0 mg/kg/injection, schedule: Q01DX009 (ip), vehicle: saline sonified): 122 % of control

Cc1c2cc[n+](Cc3ccc(I)cc3)cc2c(C)c2c1[nH]c1ccccc12
T/C (dose: 11.75 mg/kg/injection, schedule: Q04DX002 (ip), vehicle: saline with Tween-80): 112 % of control
T/C (dose: 23.5 mg/kg/injection, schedule: Q04DX002 (ip), vehicle: saline with Tween-80): 116 % of control
T/C (dose: 47.0 mg/kg/injection, schedule: Q04DX002 (ip), vehicle: saline with Tween-80): 124 % of control

CC(C)CC(NC(=O)C(Cc1cnc[nH]1)NC(=O)OCc1ccccc1)C(=O)O (stereo not drawn) (Cbz-His-Leu-OH; configuration not given here)
T/C (dose: 50.0 mg/kg/injection, schedule: Q01DX005 (ip), vehicle: Klucel (hydroxypropylcellulose) (HPC)): 102 % of control
T/C (dose: 100.0 mg/kg/injection, schedule: Q01DX005 (ip), vehicle: Klucel (hydroxypropylcellulose) (HPC)): 104 % of control
T/C (dose: 200.0 mg/kg/injection, schedule: Q01DX005 (ip), vehicle: Klucel (hydroxypropylcellulose) (HPC)): 104 % of control

CCOC(=O)N1C=CC2(C=C1)CCCCCC2
T/C (dose: 37.5 mg/kg/injection, schedule: Q04DX003 (ip), vehicle: Klucel (hydroxypropylcellulose) (HPC)): 101 % of control
T/C (dose: 75.0 mg/kg/injection, schedule: Q04DX003 (ip), vehicle: Klucel (hydroxypropylcellulose) (HPC)): 98 % of control

Oc1ccc(C2C=CCC2)cc1C1C=CCC1 (configuration not stated)
T/C [5]: 106 % of control
T/C [6]: 116 % of control
T/C (dose: 400.0 mg/kg/injection, schedule: Q01DX009 (ip), vehicle: Klucel (hydroxypropylcellulose) (HPC)): 115 % of control

O=C1C=C(C2OC(CI)C(O)C2O)C(=O)N1 (configuration not stated)
T/C (dose: 1.56 mg/kg/injection, schedule: Q01DX009 (ip), vehicle: water): 113 % of control
T/C (dose: 3.13 mg/kg/injection, schedule: Q01DX009 (ip), vehicle: water): 112 % of control
T/C (dose: 6.25 mg/kg/injection, schedule: Q01DX009 (ip), vehicle: water): 118 % of control
T/C (dose: 12.5 mg/kg/injection, schedule: Q01DX009 (ip), vehicle: water): 109 % of control
T/C (dose: 25.0 mg/kg/injection, schedule: Q01DX009 (ip), vehicle: water): 118 % of control

CC1C(C(=O)NCCc2ccccc2)CC2CCCCN21 (configuration not stated)
T/C [7]: 102 % of control
T/C [8]: 96 % of control

Cc1ccccc1C1C(C#N)C(=O)NC(=O)C1C#N (configuration not stated)
T/C [4]: 102 % of control
T/C [5]: 106 % of control
T/C [6]: 110 % of control

O=C(O)c1ccc2c(c1Cl)C(=O)c1ccccc1C2=O
T/C (dose: 25.0 mg/kg/injection, schedule: Q04DX003 (ip), vehicle: Klucel (hydroxypropylcellulose) (HPC)): 101 % of control
T/C (dose: 50.0 mg/kg/injection, schedule: Q04DX003 (ip), vehicle: Klucel (hydroxypropylcellulose) (HPC)): 101 % of control
T/C (dose: 100.0 mg/kg/injection, schedule: Q04DX003 (ip), vehicle: Klucel (hydroxypropylcellulose) (HPC)): 100 % of control

CC1=CN2C(c3cccc([N+](=O)[O-])c3)=NON(c3ccc(C)cn3)C2C=C1 (configuration not stated)
T/C [7]: 87 % of control
T/C [8]: 86 % of control
T/C [9]: 92 % of control
